Literature values, collected in publication PMC7343746, “(2S, 4R)-4-[^18F]Fluoroglutamine for In vivo PET Imaging of Glioma Xenografts in Mice: an Evaluation of Multiple Pharmacokinetic Models” (Molecular Imaging and Biology, 2020).

System: alanine aminotransferase
Set-up: method as in PMID 22613816
Settings: cited from earlier work

## N[C@@H](C[C@@H]([18F])C(=O)O)C(=O)O [(2S, 4R)-4-[^18F]fluoroglutamate]
  Efficiency of processing and defluorination versus non-fluorinated natural counterpart: 5.6 times
